The values that follow are results of earlier work, collected in patent US20090104287A1, “Protocol for AIDS prevention and treatment by nutritional methods” (priority 2002, published 2009).

One data set deals with HIV-infected patients. Conditions: supplementation (usually given as N-acetyl cysteine).
In data set [1] the test system is HIV seropositive patients. Particulars: supplementation.

Each structure is given as a SMILES string.

Consider `N[C@@H](CS)C(=O)O` [cysteine], for which the “glutathione in CD4 T cells” value in the data set on HIV-infected patients is on record as “replenishes low glutathione in CD4 T cells”.

Consider `CC(=O)N[C@@H](CS)C(=O)O` [N-acetyl cysteine], for which, in data set [1], the “replenishing whole blood and T cell glutathione” value was “often seems effective in replenishing both whole blood and T cell glutathione”.
